Literature values as cited in US5916587A, “Transdermal delivery matrix for piroxicam” (Sunkyong Industries Co., Ltd., priority 1992, dated 1999).

Tests used:
[1] = system: prostaglandin biosynthesis
[2] = orally administered
[3] = oral use

SMILES	potency as an inhibitor of prostaglandin biosynthesis in vitro ([1]; compared with indomethacin)	drug excreted in the urine unchanged [2]	metabolism [2]	side effects [3]	fold less active than piroxicam inhibiting prostaglandin synthesis ([1]; metabolite vs piroxicam)
CN1C(C(=O)Nc2ccccn2)=C(O)c2ccccc2S1(=O)=O [Piroxicam, piroxicam]	about equal in potency to indomethacin	Less than 5%	metabolized at the first pass route	gastro-intestinal trouble, peptic ulcer	–
Nc1nc2cccc(-c3ccc(CN4CCS(=O)(=O)CC4)cc3)n2n1 [metabolite]	–	–	–	–	at least 1000 times
